Results published in US20240239788A1, “SMALL MOLECULE INHIBITORS OF KRAS G12D MUTANT” (Merck Sharp & Dohme LLC, priority 2021, published 2024).
Counter-ions that a name gives are not always drawn. Like-named read-outs stand apart in the source and are kept apart here.

Experiments:
[1] = molecular target: KRAS protein containing G12D mutation (Homo sapiens (Human), UniProt P01116, G12D); test: SOS-catalyzed nucleotide exchange assay (GNE), TR-FRET; format: biochemical; details: biotinylated KRAS G12D, SOS and GTP, 60-minute incubation
Sequence of KRAS protein containing G12D mutation (P01116 other isoform, or with tags, fused parts or gaps G12D (already in the parent)): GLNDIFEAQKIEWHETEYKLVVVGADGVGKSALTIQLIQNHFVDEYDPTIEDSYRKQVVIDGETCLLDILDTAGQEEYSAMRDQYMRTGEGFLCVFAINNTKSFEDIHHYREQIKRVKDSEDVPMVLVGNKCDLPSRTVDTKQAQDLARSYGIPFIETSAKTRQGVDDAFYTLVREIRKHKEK
Procedure: Compounds are added to this complex and then after a 60-minute incubation time the mixture is treated with SOS and unlabeled GTP. Small molecule inhibitors stabilize the Bodipy-GDP complex whereas the untreated protein rapidly exchanges Bodipy-GDP for unlabeled GTP resulting in reduced TR-FRET signal.
This solution is referred to as biotinylated KRAS G12D stock solution.

[2] = system: AsPC-1 cells containing homozygous KRAS-G12D activating mutation; test: Cellular phospho-ERK assay with 10% FBS (Examples 107a-256); format: cell-based
Procedure: 5% CO2 for 2 hours. […] Assay plates were read on a EnVision Multimode Plate Reader (PerkinElmer) and the ratio of p-Erk vs total Erk in each well was used as the final readout.

[3] = read-out: IC50 (nM) pERK (cell with FBS 10%), AsPC-1 cells, 10% fetal bovine serum, 2 hours, ratio of p-Erk vs total Erk
[4] = Homo sapiens, ASPC1, 2 h, read-out: IC50 (nM) pERK (cell with FBS 10%), AsPC-1 cells, 10% fetal bovine serum, 2 hours, ratio of p-Erk vs total Erk

SMILES	IC50 [1] [nM]	IC50 [2, 3] [nM]	IC50 [2, 4] [nM]	IC50 ([2]; Homo sapiens, ASPC1, 2 h, read-out: IC50 (nM) pERK (cell with FBS 10%)) [nM]
Cc1cc2[nH]nc(C#N)c2c(-c2c(F)cc3c(N4C[C@H]5CC[C@@H](C4)N5)nc(OC[C@@]45CCCN4C[C@H](F)C5)nc3c2F)c1C(F)(F)F (single isomer, unassigned) [227b]	1.02	32.6		
Cc1c(C(F)(F)F)c(-c2c(F)cc3c(N4CC5CCC(C4)N5)nc(OC[C@@]45CCCN4C[C@H](F)C5)nc3c2F)c2cn[nH]c2c1F (single isomer, unassigned) [Ex. 166a]	944	30000		
C[C@@]12CC[C@H](CN(c3nc(OC[C@@]45CCCN4C[C@H](F)C5)nc4c(F)c(-c5cc(O)cc6ccc(F)c(Cl)c56)c(F)cc34)C1)N2 (single isomer, unassigned) [Ex. 176b]	110		4360	
Cc1cc2[nH]ncc2c(-c2c(F)cc3c(N4CC5CCC(C4)N5)nc(OC[C@@]45CCCN4C[C@H](F)C5)nc3c2F)c1OC(F)(F)Cl (single isomer, unassigned) [compound 253]	1.74		111	
CO[C@@H]1CCN(C[C@@]2(COc3nc(N4CC5CC[C@@](C)(C4)N5)c4cc(F)c(-c5cc(O)cc6cccc(Cl)c56)c(F)c4n3)CC2(F)F)C1 (single isomer, unassigned) [Ex. 215a]	5.06	14000		
C#Cc1cccc2cc(O)cc(-c3c(F)cc4c(N5C[C@H]6CC[C@@](C)(C5)N6)nc(OC)nc4c3F)c12 (single isomer, unassigned) [Ex. 171a, TFA]	1260		7720	
C[C@]12CCC(CN(c3nc(OC[C@@]45CCCN4C[C@H](F)C5)nc4c(F)c(-c5cc(O)cc(Cl)c5OC(F)(F)F)c(F)cc34)C1)N2 [compound 244, 3-chloro-5-(6,8-difluoro-2-(((2RS,7aS)-2-fluorotetrahydro-1H-pyrrolizin-7a(5H)-yl)methoxy)-4-((1S,5R)-1-methyl-3,8-diazabicyclo[3.2.1]octan-3-yl)quina-zolin-7-yl)-4-(trifluoromethoxy)phenol]	3.7		161	
CN(C)C[C@@]1(COc2nc(N3C[C@H]4CC[C@@H](C3)N4)c3cc(F)c(-c4c(C(F)(F)F)c(Cl)cc5cnn(C)c45)c(F)c3n2)CC1(F)F (single isomer, unassigned) [Ex. 201b]	45.9		15600	
C[C@]12CCC(CN(c3nc(OCC45CCCN4CC(F)C5)nc4c(F)c(-c5nc(N)cc6cccc(Cl)c56)c(F)cc34)C1)N2 (stereo in doubt) [Ex. 131, 8-chloro-1-(6,8-difluoro-2-(((2S,7aR)-2-fluorotetrahydro-1H-pyrrolizin-7a(5H)-yl)methoxy)-4-((1S,5R)-1-methyl-3,8-diaza-bicyclo[3.2.1]octan-3-yl)quinazolin-7-yl) isoquinolin-3-amine]	188		6980	
C#Cc1cccc2cc(O)cc(-c3c(F)cc4c(N5CC6CC[C@@](C)(C5)N6)nc(OCC5(CN6CC[C@@H](F)C6)CC5)nc4c3F)c12 (single isomer, unassigned) [Ex. 169]	0.7			73
C#Cc1cccc2cc(O)c(C)c(-c3c(F)cc4c(N5CC6CC[C@@](C)(C5)N6)nc(OC[C@@]56CCCN5C[C@H](F)C6)nc4c3F)c12 (single isomer, unassigned) [Ex. 204a]	1.13	64.2		
CN(C[C@@]1(COc2nc(N3C[C@H]4CC[C@@](C)(C3)N4)c3cc(F)c(-c4cc(O)cc5cccc(Cl)c45)c(F)c3n2)CC1(F)F)[C@@H]1CCC[C@H]1O [Ex. 217a, 5-chloro-4-(2-(((R)-2,2-difluoro-1-((((1R,2R)-2-hydroxycyclopentyl)-(methyl)amino)methyl)cyclopropyl)methoxy)-6,8-difluoro-4-((1S,5R)-1-methyl-3,8-diazabicyclo[3.2.1]octan-3-yl)quinazolin-7-yl)naphthalen-2-ol]	12.7		2640	
COCCOCC1CCN(C[C@@]2(COc3nc(N4CC5CC[C@@](C)(C4)N5)c4cc(F)c(-c5c(C(F)(F)F)c(C)cc6[nH]ncc56)c(F)c4n3)CC2(F)F)C1 (single isomer, unassigned) [Ex. 222]	8.84		2880	
